Laboratory results reported in paper PMC7508162 (Frontiers in Pharmacology, 2020).

Columns and labels:
NTPDase3 = target: T1, NTPDase3 (Homo sapiens, UniProt O75355); assay: Malachite green assay for NTPDase3; type: biochemical; set-up: expressed in transfected cells; host or cells: COS-7 cell membrane preparations; settings: ATP 50 µM, recombinant COS-7 cell membrane preparation, read-out: Ki ± SEM
T1 sequence (O75355 1-529): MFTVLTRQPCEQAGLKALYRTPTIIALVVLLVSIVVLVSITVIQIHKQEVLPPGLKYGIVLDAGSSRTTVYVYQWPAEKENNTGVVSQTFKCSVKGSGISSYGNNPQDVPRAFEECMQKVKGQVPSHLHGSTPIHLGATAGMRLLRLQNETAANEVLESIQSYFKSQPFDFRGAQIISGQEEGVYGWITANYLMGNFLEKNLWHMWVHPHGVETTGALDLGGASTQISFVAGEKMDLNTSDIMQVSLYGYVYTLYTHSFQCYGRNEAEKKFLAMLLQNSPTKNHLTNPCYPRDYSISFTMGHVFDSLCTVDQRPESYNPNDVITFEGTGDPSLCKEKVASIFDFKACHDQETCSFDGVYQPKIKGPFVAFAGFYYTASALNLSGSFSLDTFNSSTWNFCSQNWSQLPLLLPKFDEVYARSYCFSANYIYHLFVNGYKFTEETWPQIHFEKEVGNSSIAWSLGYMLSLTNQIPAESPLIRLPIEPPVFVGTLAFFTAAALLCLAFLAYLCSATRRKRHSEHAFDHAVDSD
Procedure: The enzymatic activity assay was determined essentially as previously described ([Cogan et al., 1999]) with a few adaptations. The reaction buffer contained 10 mM HEPES, 2 mM CaCl2, 1 mM MgCl2, pH 7.4 in a final volume of 50 μl in transparent 96-well half area plates. For CD39 (NTPDase1), we made use of human umbilical cord membranes preparations which express high levels of the enzyme. For the other human NTPDase isoenzymes, we had to resort to recombinant expression. Human umbilical cord membrane preparations (250 ng) natively expressing high amounts of CD39, or the respective recombinant COS-7 cell membrane preparations expressing the appropriate NTPDase isoenzyme (ca. 100 ng of protein depending on enzyme activity) ([Sévigny et al., 1997]; [Lecka et al., 2013]) with or without inhibitor were preincubated at 37°C and gentle shaking (Eppendorf Thermomixer comfort at 500 rpm) for 5 min. The amount of enzyme preparation was adjusted to ensure 10–20% of substrate conversion. […] ([Kukulski et al., 2005]). After 15 min of incubation at 37°C with gentle shaking, the reaction was stopped by adding the detection reagents (20 µl malachite green solution, 0.6 mM, and 30 µl ammonium molybdate solution, 20 mM, in sulfuric acid, 1.5 M). The released (inorganic) phosphate was quantified after 20 min of gentle shaking at 25°C by measuring the absorption of the malachite green-phosphomolybdate complex at 600 nm using a BMG PheraStar FS plate reader (BMG Labtech GmbH, Ortenberg, Germany). The corrected absorption was calculated by subtracting the absorption of the negative control samples, which were incubated with denatured enzyme (90°C, 15 min), and the inhibition was calculated as follows:
% Inhibition=(B−T)/B*100% […]
Full concentration-inhibition curves were determined with inhibitor concentrations ranging from 0.1 to 300 µM in the presence of 2% DMSO. Three independent experiments were performed (n = 3) and curves were calculated by the GraphPad Prism 8 software. The Ki value was calculated using the Cheng-Prusoff equation for competitive inhibitors: […]

[1] = Chemical stability of stock solutions by LC/ESI-MS analysis; type: physicochemical
Procedure: To ensure that degradation was caused by microsomal enzymes and not due to chemical instability, stock solutions were analyzed by LC/ESI-MS analysis, and were in all cases found to be stable. […] Nevertheless, they represent useful tool compounds for in vitro studies.

human CD39 = target: T2, human CD39 (Homo sapiens, UniProt P49961); assay: Fluorescence capillary electrophoresis assay for CD39; type: biochemical; set-up: Human umbilical cord membrane preparations (250 ng) natively expressing high amounts of CD39; from tissue; host or cells: human umbilical cord membranes; settings: fluorescent substrate PSB-017621A 0.5 µM; human umbilical cord membrane preparation; n = 3; Cheng-Prusoff; read-out: Ki ± SEM
T2 sequence (P49961 1-510): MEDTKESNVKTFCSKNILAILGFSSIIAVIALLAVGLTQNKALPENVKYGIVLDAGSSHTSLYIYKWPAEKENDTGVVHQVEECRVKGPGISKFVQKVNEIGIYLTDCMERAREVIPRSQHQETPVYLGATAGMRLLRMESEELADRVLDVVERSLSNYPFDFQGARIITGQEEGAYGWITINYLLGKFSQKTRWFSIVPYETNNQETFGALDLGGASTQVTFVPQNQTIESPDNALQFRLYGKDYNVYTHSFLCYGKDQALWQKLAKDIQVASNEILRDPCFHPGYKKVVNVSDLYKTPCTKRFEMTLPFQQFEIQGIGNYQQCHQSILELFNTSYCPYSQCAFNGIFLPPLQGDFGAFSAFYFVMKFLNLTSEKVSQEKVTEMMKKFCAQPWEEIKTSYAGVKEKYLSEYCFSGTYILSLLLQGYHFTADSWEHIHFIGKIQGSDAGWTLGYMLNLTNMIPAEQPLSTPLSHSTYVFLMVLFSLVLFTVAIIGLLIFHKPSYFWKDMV
Procedure: They were minced and homogenized with a polytron in 95 mM NaCl, 0.1 mM phenylmethylsulfonyl fluoride (PMSF), and 45 mM Tris solution, pH 7.6. […] The pellets were resuspended in 5 mM Tris buffer solution, pH 8.0 and 10% glycerol. All purification steps were performed at 4°C. The preparations were kept at −80°C.
For inhibition screening, three independent experiments were performed. […] The reaction buffer contained 10 mM HEPES, 2 mM CaCl2, 1 mM MgCl2, pH 7.4. The samples were incubated at 37°C for 4 min, and the enzymatic reaction was terminated by heating at 90°C for 5 min. The solution was then diluted 1:20 with reaction buffer to perform separation of nucleotides by capillary electrophoresis (CE) followed by laser-induced fluorescence (LIF) detection. […] Three independent experiments were performed, and curves were calculated by GraphPad Prism 8 software (GraphPad software, San Diego, CA, USA).
Analysis was carried out using a P/ACE MDQ capillary electrophoresis system (Beckman Instruments, Fullerton, CA, USA). The separation was performed in a polyacrylamide-coated capillary [30 cm (10 cm effective length) × 50 µm (id), × 360 µm (od)]. Before each run, the capillary was rinsed with the background electrolyte [50 mM phosphate buffer (pH 6.5)] for 1 min at 30 psi. Samples were electrokinetically injected by applying a voltage of -6 kV for 30 s at the capillary outlet, and the fluorescent nucleotide derivatives were separated by voltage application of -15 kV. […] Data collection and peak area analysis were performed by the P/ACE MDQ software 32 KARAT obtained from Beckman Coulter (Fullerton, CA, USA).

Row | Ki (human CD39) | SMILES | Ki (NTPDase3) | stability of stock solutions [1]
1 | – | CCN(CC)c1ncnc2c1ncn2[C@@H]1O[C@H](COP(=O)(O)OP(=O)(O)C(Br)(Br)P(=O)(O)O)[C@@H](O)[C@H]1O [ARL67156, (Dibromo((((((2R,3S,4R,5R)-5-(6-(diethylamino)-9H-purin-9-yl)-3,4-dihydroxytetrahydrofuran-2-yl)methoxy)-(hydroxy)-phosphoryl)oxy)(hydroxy)phosphoryl)methyl)-phosphonic Acid, reference compound] | 7.94 ± 1.36 µM | stable
2 | – | CCCCSc1nc2c(N)ncnc2n1[C@@H]1O[C@H](COP(=O)(O)OP(=O)(O)C(Br)(Br)P(=O)(O)O)[C@@H](O)[C@H]1O [Compound 31, (((((((2R,3S,4R,5R)-5-(6-Amino-8-(butylthio)-9H-purin-9-yl)-3,4-dihydroxytetrahydrofuran-2-yl)methoxy)(hydroxy)-phosphoryl)oxy)(hydroxy)phosphoryl)dibromomethyl)-phosphonic Acid] | 1.54 ± 0.34 µM | stable
3 | 1.51 ± 0.4 µM | CCCCNc1nc2c(NC)ncnc2n1[C@@H]1O[C@H](COP(=O)(O)OP(=O)(O)C(Br)(Br)P(=O)(O)O)[C@@H](O)[C@H]1O [Compound 33, (Dibromo((((((2R,3S,4R,5R)-5-(8-(butylamino)-6-(methylamino)-9H-purin-9-yl)-3,4-dihydroxy-tetrahydrofuran-2-yl)methoxy)(hydroxy)phosphoryl)oxy)-(hydroxy)phosphoryl)methyl)-phosphonic Acid] | 7.8 ± 1.34 µM | stable
